The text below walks through data of the supplement of paper PMC11208160.

The data set is described as follows: recombinant UMI read abundance after kanamycin selection (control-corrected) (log10(CPM+1)); higher = more efficient recombination; extreme values may be limits of the assay; sequences stand for … in AGTGCAGAGAAAATCGGCCAGTTTTCTCTGCCTGCAGTCCGCATGCCGTGGGACCCCTTGGGTTCTAACCTGTTGCCTAGATTTATGCAGCGGACTGCCTTTCTCCCAAAGTGATAAACCGG…AGGTTGGTTTCACT; site = the 11-nt donor. On the procedure: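 Pooled E. coli donor-specificity screen for the IS621 bridge recombinase. Each library member carries a reprogrammed 11-nt donor and a full-length LE bridge RNA expressed in cis from the natural promoter, with a paired donor-binding loop (8-nt LDG + 4-nt RDG) and a target-binding loop fixed to T5. It is co-electroporated with a T5 target plasmid; recombinase is induced with 0.07 mM IPTG and recombinants are selected on kanamycin. UMIs are counted as CPM, averaged over two biological replicates and corrected by the unselected control. Molecule = full bridge RNA written as DNA, built from the T5 scaffold: LDG = donor specificity nt 1-8, RDG = reverse complement of nt 8-11.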
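Note: IS621 bridge recombinase in Escherichia coli cells against a fixed T5 target plasmid.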

Turning to “AGCCTTTCATGGACCGGTTTTCCCGGTAATCCGTATTTGAG (site AGCCTTTCTGT)”, the “recombinant UMI read abundance (log10)” value was found to be 0.

“AGCCTTTCATGGACCGGTTTTCCCGGTAATCCGTATTTGAG (site AGCCTTTCTTT)”: the “recombinant UMI read abundance (log10)” value is 0.007.

Turning to “AGCGATACATGGACCGGTTTTCCCGGTAATCCGTATTTGAA (site AGCGATACTTT)”, the “recombinant UMI read abundance (log10)” value worked out at 1.65.

With “AGCGTAACATGGACCGGTTTTCCCGGTAATCCGTATTTGAC (site AGCGTAACTGT)”, the “recombinant UMI read abundance (log10)” value was 2.86.

For the sequence “AGCGTAGCATGGACCGGTTTTCCCGGTAATCCGTATTTGCA (site AGCGTAGCTTG)”, the “recombinant UMI read abundance (log10)” value was determined as 2.87.

“AGCGTAGCATGGACCGGTTTTCCCGGTAATCCGTATTTGTT (site AGCATAGCTAA)”: the “recombinant UMI read abundance (log10)” value was 0.838.

As for “AGCGTAGCATGGACCGGTTTTCCCGGTAATCCGTATTTGTT (site AGCCTAGCTAA)”, the “recombinant UMI read abundance (log10)” value was 0.0274.

As to “AGCGTAGCATGGACCGGTTTTCCCGGTAATCCGTATTTGTT (site AGCGTAGCTAA)”, the “recombinant UMI read abundance (log10)” value was 1.33.

For “AGCGTAGCATGGACCGGTTTTCCCGGTAATCCGTATTTGTT (site AGCTTAGCTAA)”, the “recombinant UMI read abundance (log10)” value stood at 0.00472.

Consider “AGCGTGACATGGACCGGTTTTCCCGGTAATCCGTATTTGCC (site AGCGTGACTGG)”, for which the “recombinant UMI read abundance (log10)” value was 1.78.

On to “AGCGTTACATGGACCGGTTTTCCCGGTAATCCGTATTTGTA (site AGCGTTACTTA)”, for which the “recombinant UMI read abundance (log10)” value came to 0.651.

As for “AGCTCAACATGGACCGGTTTTCCCGGTAATCCGTATTTGGG (site AGCTCAACTCC)”, the “recombinant UMI read abundance (log10)” value was 0.

On to “AGCTCAACATGGACCGGTTTTCCCGGTAATCCGTATTTGGG (site AGCTCACCTCC)”, for which the “recombinant UMI read abundance (log10)” value was determined as 0.

Regarding “AGCTCAACATGGACCGGTTTTCCCGGTAATCCGTATTTGGG (site AGCTCAGCTCC)”, the “recombinant UMI read abundance (log10)” value was determined as 0.

Regarding “AGCTCAACATGGACCGGTTTTCCCGGTAATCCGTATTTGGG (site AGCTCATCTCC)”, the “recombinant UMI read abundance (log10)” value was 0.

On to “AGCTCAGCATGGACCGGTTTTCCCGGTAATCCGTATTTGGC (site AGCTCAGCTAC)”, for which the “recombinant UMI read abundance (log10)” value stood at 0.396.

In the case of “AGCTCAGCATGGACCGGTTTTCCCGGTAATCCGTATTTGGC (site AGCTCAGCTCC)”, the “recombinant UMI read abundance (log10)” value was 0.00906.

As to “AGCTCAGCATGGACCGGTTTTCCCGGTAATCCGTATTTGGC (site AGCTCAGCTGC)”, the “recombinant UMI read abundance (log10)” value came out at 2.19.

As to “AGCTCAGCATGGACCGGTTTTCCCGGTAATCCGTATTTGGC (site AGCTCAGCTTC)”, the “recombinant UMI read abundance (log10)” value amounted to 0.398.

Regarding “AGCTCAGCATGGACCGGTTTTCCCGGTAATCCGTATTTGGG (site AACTCAGCTCC)”, the “recombinant UMI read abundance (log10)” value is 0.

Take “AGCTCAGCATGGACCGGTTTTCCCGGTAATCCGTATTTGGG (site ACCTCAGCTCC)”: the “recombinant UMI read abundance (log10)” value was found to be 0.026.

As for “AGCTCAGCATGGACCGGTTTTCCCGGTAATCCGTATTTGGG (site AGATCAGCTCC)”, the “recombinant UMI read abundance (log10)” value was 0.0131.

As to “AGCTCAGCATGGACCGGTTTTCCCGGTAATCCGTATTTGGG (site AGCACAGCTCC)”, the “recombinant UMI read abundance (log10)” value turned out to be 0.212.

As for “AGCTCAGCATGGACCGGTTTTCCCGGTAATCCGTATTTGGG (site AGCCCAGCTCC)”, the “recombinant UMI read abundance (log10)” value was 0.263.

In the case of “AGCTCAGCATGGACCGGTTTTCCCGGTAATCCGTATTTGGG (site AGCGCAGCTCC)”, the “recombinant UMI read abundance (log10)” value is 0.0219.

As for “AGCTCAGCATGGACCGGTTTTCCCGGTAATCCGTATTTGGG (site AGCTAAGCTCC)”, the “recombinant UMI read abundance (log10)” value stood at 0.0351.

As for “AGCTCAGCATGGACCGGTTTTCCCGGTAATCCGTATTTGGG (site AGCTCAACTCC)”, the “recombinant UMI read abundance (log10)” value is 0.

On to “AGCTCAGCATGGACCGGTTTTCCCGGTAATCCGTATTTGGG (site AGCTCACCTCC)”, for which the “recombinant UMI read abundance (log10)” value stood at 0.00337.

“AGCTCAGCATGGACCGGTTTTCCCGGTAATCCGTATTTGGG (site AGCTCAGCTAC)”: the “recombinant UMI read abundance (log10)” value came to 0.00707.

As to “AGCTCAGCATGGACCGGTTTTCCCGGTAATCCGTATTTGGG (site AGCTCAGCTCA)”, the “recombinant UMI read abundance (log10)” value is 0.0167.

As for “AGCTCAGCATGGACCGGTTTTCCCGGTAATCCGTATTTGGG (site AGCTCAGCTCC)”, the “recombinant UMI read abundance (log10)” value amounted to 0.0108.

For “AGCTCAGCATGGACCGGTTTTCCCGGTAATCCGTATTTGGG (site AGCTCAGCTCG)”, the “recombinant UMI read abundance (log10)” value was 0.0246.

In the case of “AGCTCAGCATGGACCGGTTTTCCCGGTAATCCGTATTTGGG (site AGCTCAGCTCT)”, the “recombinant UMI read abundance (log10)” value was determined as 0.337.

As for “AGCTCAGCATGGACCGGTTTTCCCGGTAATCCGTATTTGGG (site AGCTCAGCTGC)”, the “recombinant UMI read abundance (log10)” value came to 0.

On to “AGCTCAGCATGGACCGGTTTTCCCGGTAATCCGTATTTGGG (site AGCTCAGCTTC)”, for which the “recombinant UMI read abundance (log10)” value was 0.0127.

As for “AGCTCAGCATGGACCGGTTTTCCCGGTAATCCGTATTTGGG (site AGCTCATCTCC)”, the “recombinant UMI read abundance (log10)” value turned out to be 0.0384.

For “AGCTCAGCATGGACCGGTTTTCCCGGTAATCCGTATTTGGG (site AGCTCCGCTCC)”, the “recombinant UMI read abundance (log10)” value worked out at 0.0147.

For the sequence “AGCTCAGCATGGACCGGTTTTCCCGGTAATCCGTATTTGGG (site AGCTCGGCTCC)”, the “recombinant UMI read abundance (log10)” value was 0.0329.

As to “AGCTCAGCATGGACCGGTTTTCCCGGTAATCCGTATTTGGG (site AGCTCTGCTCC)”, the “recombinant UMI read abundance (log10)” value came out at 0.0255.

“AGCTCAGCATGGACCGGTTTTCCCGGTAATCCGTATTTGGG (site AGCTGAGCTCC)”: the “recombinant UMI read abundance (log10)” value came out at 0.

For the sequence “AGCTCAGCATGGACCGGTTTTCCCGGTAATCCGTATTTGGG (site AGCTTAGCTCC)”, the “recombinant UMI read abundance (log10)” value was 0.0288.

Consider “AGCTCAGCATGGACCGGTTTTCCCGGTAATCCGTATTTGGG (site AGGTCAGCTCC)”, for which the “recombinant UMI read abundance (log10)” value was 0.00833.

As to “AGCTCAGCATGGACCGGTTTTCCCGGTAATCCGTATTTGGG (site AGTTCAGCTCC)”, the “recombinant UMI read abundance (log10)” value worked out at 0.0207.

Take “AGCTCAGCATGGACCGGTTTTCCCGGTAATCCGTATTTGGG (site ATCTCAGCTCC)”: the “recombinant UMI read abundance (log10)” value amounted to 0.019.

Turning to “AGCTCAGCATGGACCGGTTTTCCCGGTAATCCGTATTTGGG (site CGCTCAGCTCC)”, the “recombinant UMI read abundance (log10)” value turned out to be 0.299.

For the sequence “AGCTCAGCATGGACCGGTTTTCCCGGTAATCCGTATTTGGG (site GGCTCAGCTCC)”, the “recombinant UMI read abundance (log10)” value stood at 0.0255.

For “AGCTCAGCATGGACCGGTTTTCCCGGTAATCCGTATTTGGG (site TGCTCAGCTCC)”, the “recombinant UMI read abundance (log10)” value was 0.366.

As for “AGCTCAGCATGGACCGGTTTTCCCGGTAATCCGTATTTGGT (site AGCTCAGCTAC)”, the “recombinant UMI read abundance (log10)” value came out at 1.27.

Consider “AGCTCAGCATGGACCGGTTTTCCCGGTAATCCGTATTTGGT (site AGCTCAGCTCC)”, for which the “recombinant UMI read abundance (log10)” value was 0.0126.

In the case of “AGCTCAGCATGGACCGGTTTTCCCGGTAATCCGTATTTGGT (site AGCTCAGCTGC)”, the “recombinant UMI read abundance (log10)” value was determined as 0.

In the case of “AGCTCAGCATGGACCGGTTTTCCCGGTAATCCGTATTTGGT (site AGCTCAGCTTC)”, the “recombinant UMI read abundance (log10)” value came out at 0.0112.

On to “AGCTCCGCATGGACCGGTTTTCCCGGTAATCCGTATTTGGG (site AGCTCAGCTCC)”, for which the “recombinant UMI read abundance (log10)” value turned out to be 0.00775.

Take “AGCTCCGCATGGACCGGTTTTCCCGGTAATCCGTATTTGGG (site AGCTCCGCTCC)”: the “recombinant UMI read abundance (log10)” value stood at 0.211.

As for “AGCTCCGCATGGACCGGTTTTCCCGGTAATCCGTATTTGGG (site AGCTCGGCTCC)”, the “recombinant UMI read abundance (log10)” value came to 0.0125.

Take “AGCTCCGCATGGACCGGTTTTCCCGGTAATCCGTATTTGGG (site AGCTCTGCTCC)”: the “recombinant UMI read abundance (log10)” value came to 0.00972.

Turning to “AGCTGGGCATGGACCGGTTTTCCCGGTAATCCGTATTTGTA (site AGCTGGGCTTA)”, the “recombinant UMI read abundance (log10)” value amounted to 2.76.

For “AGCTTAGCATGGACCGGTTTTCCCGGTAATCCGTATTTGCC (site AGCTTAGCTGG)”, the “recombinant UMI read abundance (log10)” value was 0.

For “AGCTTCCCATGGACCGGTTTTCCCGGTAATCCGTATTTGTG (site AGATTCCCTCA)”, the “recombinant UMI read abundance (log10)” value is 0.114.

As to “AGCTTCCCATGGACCGGTTTTCCCGGTAATCCGTATTTGTG (site AGCTTCCCTCA)”, the “recombinant UMI read abundance (log10)” value amounted to 0.00566.

Turning to “AGCTTCCCATGGACCGGTTTTCCCGGTAATCCGTATTTGTG (site AGGTTCCCTCA)”, the “recombinant UMI read abundance (log10)” value was found to be 0.00784.

On to “AGCTTCCCATGGACCGGTTTTCCCGGTAATCCGTATTTGTG (site AGTTTCCCTCA)”, for which the “recombinant UMI read abundance (log10)” value was found to be 0.0209.

As to “AGCTTTCCATGGACCGGTTTTCCCGGTAATCCGTATTTGGA (site AGCTTTCCTTC)”, the “recombinant UMI read abundance (log10)” value was found to be 0.00277.

As for “AGGAAAACATGGACCGGTTTTCCCGGTAATCCGTATTTGCA (site AGGAAAACTTG)”, the “recombinant UMI read abundance (log10)” value stood at 0.959.

Turning to “AGGAAAACATGGACCGGTTTTCCCGGTAATCCGTATTTGCA (site AGGAACACTTG)”, the “recombinant UMI read abundance (log10)” value was determined as 0.

Turning to “AGGAAAACATGGACCGGTTTTCCCGGTAATCCGTATTTGCA (site AGGAAGACTTG)”, the “recombinant UMI read abundance (log10)” value came out at 0.
